Experimental data reported in PubChem BioAssay AID179 (DTP/NCI, 2004).
The source made the active and inactive calls.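 How the source made its calls: active means compounds giving half or more protection of infected cells from virus-caused growth loss, again on retest; inactive means the rest.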

System: CEM cells HIV-1 protection, formazan growth assay
Assay: NCI AIDS Antiviral Assay
Details: for IC50: measured here: growth of uninfected CEM cells
In short: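 Category rules: moderately active means at least 50% protection on retest, and confirmed active means 100% protection reproducibly. The underlying data came from a formazan growth assay in HIV-1-infected CEM cells.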

`CC(C)(C)CNC(=O)NCn1cc(-c2ccccc2)nn1` was tested, and the EC50 was greater than 200 µM and the IC50 was greater than 200 µM.

`O=C(Nc1ccc(S(=O)(=O)c2ccc(NC(=O)c3cc(S(=O)(=O)O)ccc3O)cc2)cc1)c1cc(S(=O)(=O)O)ccc1O` (tested in a mixture with another compound) gave an EC50 of 162 µM and an IC50 greater than 200 µM.

In the case of `O=C(O)Cc1c(-c2ccc([N+](=O)[O-])cc2)c(=O)oc2cc(O)ccc12`, the EC50 is reported as greater than 200 µM and the IC50 is reported as 21.4 µM.

For `O=C1/C(=C/c2ccccc2)CN(C(=O)OCc2ccccc2)C/C1=C\c1ccccc1`, the outcome was “inactive”.

With `Cc1ccc(Cc2nn(C)c(=O)n2-n2cccc2)cc1` the EC50 was greater than 200 µM and the IC50 was 102 µM.

`CCN(CC)CCSc1c(C(C)=O)c(=O)n(-c2ccccc2)c(=S)n1-c1ccccc1` showed an EC50 greater than 200 µM and an IC50 of 1.15 µM.

`CC(=O)O[C@@H]1O[Si](C(C)(C)C)(C(C)(C)C)[C@H](C)[C@H]1C` showed an EC50 greater than 100 µM and an IC50 greater than 100 µM.

For `NCCNC(=O)CCC(CN(CC(=O)O)CC(=O)O)N(CC(=O)O)CC(=O)O` (stereo not drawn), the EC50 was greater than 63.1 µM and the IC50 was greater than 63.1 µM.

With `O=c1[nH]nc(Cc2ccccc2)n1CCCl` the EC50 was greater than 200 µM and the IC50 was greater than 200 µM.

Work on `OC(C#CCN1CCCC1)(c1ccccc1)c1ccc(F)cc1.[C-]#[O+].[C-]#[O+].[C-]#[O+].[C-]#[O+].[C-]#[O+].[C-]#[O+].[Co].[Co]` (stereo not drawn) yielded an EC50 greater than 200 µM and an IC50 of 7.41 µM.

Molecule `Cn1cnc([N+](=O)[O-])c1S` has an EC50 greater than 200 µM and an IC50 of 67.6 µM.

With `O=S(=O)(O)CCNC(=S)C(=S)NCCS(=O)(=O)O` the outcome was “inactive”.

`COc1cccc(Nc2nc(NS(=O)(=O)c3cc(C)c(Cl)cc3S)n[nH]2)c1` was tested, and the EC50 was greater than 200 µM and the IC50 was 158 µM.

`NC(CSSCC(NC(=O)OCc1ccccc1)C(=O)O)C(=O)O` (stereo not drawn) showed an EC50 greater than 200 µM and an IC50 greater than 200 µM.

Work on `O=c1cc(N2CCN(c3cc(=O)n4ccccc4n3)CC2)oc2ccccc12` yielded an EC50 greater than 200 µM and an IC50 greater than 200 µM.

Molecule `COc1ccc(N2C(=O)C3c4[nH]c5ccccc5c4C4CCC(C(C)(C)C)CC4C3C2=O)cc1OC` (stereo not drawn) has an EC50 greater than 2.14 µM and an IC50 greater than 2.14 µM.

With `CCN(CCN(CC)C(=O)Nc1ccccc1)C(=O)Nc1ccccc1` the EC50 was greater than 200 µM and the IC50 was greater than 200 µM.

Work on `S=P1(c2ccccc2)Nc2ccc(Cl)cc2N1` (stereo not drawn) yielded an EC50 greater than 468 µM and an IC50 of 9.12 µM.

Work on `CN(C)/C=N\c1ccnc(=O)[nH]1` yielded an EC50 greater than 1320 µM and an IC50 greater than 1320 µM.

`CC(C)=NNC(=O)CC(=O)N(C(=O)c1ccccc1Cl)c1ccc(C)cc1` showed an EC50 greater than 468 µM and an IC50 greater than 468 µM.

With `O=C1C(c2ccccc2)=[N+]([O-])c2ccccc21` the outcome was “inactive”.

Work on `CC(C)(C)c1cc2c(O)c(c1)COCc1cc(C(C)(C)C)cc(c1O)COCc1cc(C(C)(C)C)cc(c1O)COC2` yielded an EC50 greater than 200 µM and an IC50 of 145 µM.

Molecule `CC(C)=CCC[C@@H](C)C1=C(O)C(Nc2ccccc2)=C(C)C(=O)C1=O` has an EC50 greater than 200 µM and an IC50 of 13.2 µM.

In the case of `COc1c2occc2c(N=Cc2c[nH]c3ccccc23)c2ccc(=O)oc12`, the EC50 is reported as greater than 50.1 µM and the IC50 is reported as 28.2 µM.

Molecule `CCOC(=O)C1(C(=O)OCC)CC(=O)[C@@]2(C1)OCC[C@H]1OC(=O)C[C@H]12` has an EC50 greater than 200 µM and an IC50 greater than 200 µM.

For `CCOC(=O)CCC(=O)Oc1ccc2c(c1OC(=O)CCC(=O)OCC)C(=O)c1ccccc1C2=O`, the EC50 was greater than 87.1 µM and the IC50 was 46.8 µM.

`CCOC(=O)C(C(=O)OCC)=C(N)C(Cl)(Cl)Cl` gave an EC50 greater than 200 µM and an IC50 of 42.7 µM.

`CCc1cccc(C(C)C)c1NC(=O)CC1Sc2ccccc2NC1=O` (stereo not drawn) was tested, and the EC50 was greater than 97.7 µM and the IC50 was 52.5 µM.

For `CNC(=S)/N=C(\N)N(C)C`, the outcome was “inactive”.

With `N#Cc1nc(C2=C(Cl)c3ccccc3OC2)[nH]c1C#N` the outcome was “inactive”.

Molecule `CC(=O)Nc1ccc(C2CC(c3ccc([N+](=O)[O-])cc3)=Nc3ccccc3S2=O)cc1` (stereo not drawn) has an EC50 greater than 3.31 µM and an IC50 greater than 3.31 µM.

With `COc1ccc(-c2c3ccccc3c(-c3ccc(OCCCCCBr)cc3)c3ccccc23)cc1` the EC50 was greater than 2.75 µM and the IC50 was greater than 2.75 µM.

Molecule `O=C(/C=C/c1ccccc1)CCN1CCN(CCC(=O)/C=C/c2ccccc2)CC1` has an EC50 greater than 200 µM and an IC50 of 1.51 µM.

`Cc1cn(C2CC(O[Si](C)(C)C(C)(C)C)C(/C=N\O)O2)c(=O)[nH]c1=O` (stereo not drawn) was tested, and the EC50 was greater than 200 µM and the IC50 was greater than 200 µM.
